“Also recorded” adds a separate entry of the source.
How the values were obtained:
Format in all cases: cell-based, human
Smad2 = assay: phospho-Smad2 immunoblotting; conditions: 100 pM TGFβ; 100 μg/mL rhPRG4; 12 h
Method: Cells were washed with PBS to remove all growth media. Appropriate volume of TNTE lysis buffer (50 mM Tris, 150 mM NaCl, 1 mM EDTA, 0.5% [v/v] Triton-X-100) containing protease and phosphatase inhibitors, was added to the cell monolayer and incubated at 4° C. under vigorous shaking for 20 minutes. Lysates were then collected in microcentrifuge tubes and centrifuged at 13,000 g for 10 minutes at 4° C. 5 μL of the lysate were subjected to protein concentration determination using Bradford-based protein assays (Bio-Rad Laboratories, Canada). Lysates were boiled for 3 minutes at 95° C. in dithiothreitol (DTT)-containing Laemmli sample buffer. For immunoprecipitation analyses, lysates were incubated with appropriate antibodies at 4° C. with gentle rocking for 3 h after which immunocomplexes were incubated with Protein G-conjugated agarose beads (UBPBio, USA) at 4° C. with gentle rocking for 3 h. Finally, the beads were washed with TNTE wash buffer (0.1% [v/v] Triton-X-100) and boiled for 5 minutes at 95° C. in dithiothreitol (DTT) containing Laemmli sample buffer. Immunoprecipitates and input lysates were then resolved by sodium dodecyl sulfate-polyacrylamide electrophoresis (SDS-PAGE) and transferred onto a nitrocellulose membrane (Bio-Rad Laboratories, Canada). […] Densitometric analyses were performed using Quantity One software (Bio-Rad Laboratories, Canada).

[1] = system: HCC cells (HLE, HLF, PLC/DC/19, Hep3B, PLC/PRF/5); assay: 72-hour proliferation assay, all HCC cells
Method: (§1) Proliferation assay: In 100 μl complete medium, 3,000 cells were seeded in wells of a 96-well plate and left overnight to allow complete attachment. The next day (at time t=0 hours), the medium was removed and replaced with 100 μl of fresh medium in the presence/absence of Sorafenib (2.5 μM), Regorafenib (2.5 μM), rhPRG4 (12.5 to 100 μg/ml). Dimethyl sulfoxide (DMSO) and PBS+0.01% Tween-20 were used as vehicles of Sorafenib/Regorafenib, and rhPRG4, respectively. Cells in triplicate wells for each cell line were fixed at t=0 hours with 4% paraformaldehyde (PFA, pH 7.6, 10 min incubation), then stained with crystal violet (CV) and thoroughly washed to remove the excess staining. After 72 hours, the cells were fixed by adding 100 μl of 4% PFA directly to the medium (2% final PFA concentration, 20 min incubation), and processed for CV staining as previously described. Then, 100 or 200 μl of 1% sodium dodecyl-sulphate were added to the wells and the plates were left under shaking until complete CV release from stained cells. Optical density was at 595 nm wavelength measured using a plate reader.

Hep3B = assay: 72-hour proliferation assay, Hep3B; conditions: only at the highest rhPRG4 concentrations; drug 2.5 μM
Method: as §1

## rhPRG4: full-length recombinant human PRG4 (lubricin) glycoprotein produced by CHO-M cells; residues 25-1404 of SEQ ID NO:1
Smad2
  TGFβ-induced phosphorylation of Smad2: did not appreciably alter TGFβ-induced phosphorylation of Smad2; also recorded: did not reduce TGFβ-induced Smad2 phosphorylation
[1]
  cell proliferation, rhPRG4 alone: did not markedly impair the cell proliferation
Hep3B
  rhPRG4-drug synergistic effect: present during Hep3B proliferation, even if lower
